Source: patent US6631283B2 (priority 2000, dated 2003)

System: Vero cells
Type: cell-based

Substance: Chlorin e6 [free Ce6]
- cell-associated Ce6-specific fluorescence (delivery of Ce6 to cells): no detectable Ce6-specific fluorescence
